Experimental data: ChEMBL document CHEMBL3885881, “DrugMatrix”

Organism: Rattus norvegicus
Test: DrugMatrix - Regimen: Daily Repeat
Type: toxicity, organism-based, Sprague-Dawley
Design: regimen Daily Repeat, gender Male, age 6-8 weeks
Conditions: in vivo, po, route oral GAVAGE, vehicle 100 % WATER; for ABSOLUTE BASOPHIL / ABSOLUTE EOSINOPHIL / ABSOLUTE LYMPHOCYTE / ABSOLUTE MONOCYTE / ABSOLUTE SEGMENTED NEUTROPHIL / BASOPHIL / EOSINOPHIL / ERYTHROCYTE COUNT / HEMATOCRIT / HEMOGLOBIN / LEUKOCYTE COUNT / LYMPHOCYTE / MEAN CORPUSCULAR HEMOGLOBIN / MEAN CORPUSCULAR HEMOGLOBIN CONCENTRATION / MEAN CORPUSCULAR VOLUME / MONOCYTE / NEUTROPHIL / NUCLEATED RED BLOOD CELLS / PLATELET COUNT: tissue Blood; for ALANINE AMINOTRANSFERASE / ALBUMIN / ALKALINE PHOSPHATASE / ASPARTATE AMINOTRANSFERASE / BLOOD UREA NITROGEN / CARBON DIOXIDE / CHLORIDE / CHOLESTEROL / CREATINE PHOSPHOKINASE / CREATININE / GLUCOSE / LACTATE DEHYDROGENASE / LIPASE / PHOSPHORUS / POTASSIUM / SODIUM / TOTAL BILIRUBIN / TOTAL PROTEIN / URIC ACID: tissue Plasma
[1] = 60 mg/kg, 120 h, dose level Low, time 5 day
[2] = 1300 mg/kg, 72 h, dose level High, time 3 day
[3] = 1300 mg/kg, 120 h, dose level High, time 5 day

With `CC(C)C[C@H](NC(=O)[C@@H](O)[C@H](N)Cc1ccccc1)C(=O)O` [UBENIMEX] the “ABSOLUTE BASOPHIL” value [1] was 0 CELLS/uL, the “ABSOLUTE EOSINOPHIL” value [1] was 0 CELLS/uL and the “ABSOLUTE LYMPHOCYTE” value [1] was 15131 CELLS/uL. The “ABSOLUTE MONOCYTE” value [1] was 122 CELLS/uL, the “ABSOLUTE SEGMENTED NEUTROPHIL” value [1] was 847 CELLS/uL and the BASOPHIL [1] was 0%. For the same molecule, the EOSINOPHIL [1] was 0%, the “ERYTHROCYTE COUNT” value [1] was 5.87 x10E6/uL and the HEMATOCRIT [1] was 36.17%. The HEMOGLOBIN [1] was 14.03 G/DL, the “LEUKOCYTE COUNT” value [1] was 16.1 x10E3/uL and the LYMPHOCYTE [1] was 94.33%. The “MEAN CORPUSCULAR HEMOGLOBIN” value [1] was 23.9 pg, the “MEAN CORPUSCULAR HEMOGLOBIN CONCENTRATION” value [1] was 38.77 G/DL and the “MEAN CORPUSCULAR VOLUME” value [1] was 61.53 fL. For the same molecule, the MONOCYTE [1] was 0.67%, the NEUTROPHIL [1] was 5% and the “NUCLEATED RED BLOOD CELLS” value [1] was 0 /100WBC. For the same molecule, the “PLATELET COUNT” value [1] was 1187.67 x10E3/uL, the “ALANINE AMINOTRANSFERASE” value [1] was 53.33 u/L and the ALBUMIN [1] was 4.3 G/DL. For the same molecule, the “ALKALINE PHOSPHATASE” value [1] was 289.33 u/L, the “ASPARTATE AMINOTRANSFERASE” value [1] was 93.33 u/L and the “BLOOD UREA NITROGEN” value [1] was 16.33 mg/dL. The “CARBON DIOXIDE” value [1] was 23.67 mmol/L, the CHLORIDE [1] was 105 MEQ/L and the CHOLESTEROL [1] was 62.33 mg/dL. The “CREATINE PHOSPHOKINASE” value [1] was 463.33 u/L, the CREATININE [1] was 0.26 mg/dL and the GLUCOSE [1] was 146.33 mg/dL. The “LACTATE DEHYDROGENASE” value [1] was 498.67 u/L, the LIPASE [1] was 9 u/L and the PHOSPHORUS [1] was 11.2 mg/dL. For the same molecule, the POTASSIUM [1] was 5.71 MEQ/L, the SODIUM [1] was 144.27 MEQ/L and the “TOTAL BILIRUBIN” value [1] was 0.13 mg/dL. The “TOTAL PROTEIN” value [1] was 6.1 G/DL, the “URIC ACID” value [1] was 1.37 mg/dL and the “ABSOLUTE BASOPHIL” value [2] was 0 CELLS/uL. For the same molecule, the “ABSOLUTE EOSINOPHIL” value [2] was 88 CELLS/uL, the “ABSOLUTE LYMPHOCYTE” value [2] was 12244.33 CELLS/uL and the “ABSOLUTE MONOCYTE” value [2] was 144 CELLS/uL. For the same molecule, the “ABSOLUTE SEGMENTED NEUTROPHIL” value [2] was 1690.33 CELLS/uL, the BASOPHIL [2] was 0% and the EOSINOPHIL [2] was 0.67%. For the same molecule, the “ERYTHROCYTE COUNT” value [2] was 5.72 x10E6/uL, the HEMATOCRIT [2] was 34.83% and the HEMOGLOBIN [2] was 14.07 G/DL. The “LEUKOCYTE COUNT” value [2] was 14.17 x10E3/uL, the LYMPHOCYTE [2] was 86.33% and the “MEAN CORPUSCULAR HEMOGLOBIN” value [2] was 24.63 pg. The “MEAN CORPUSCULAR HEMOGLOBIN CONCENTRATION” value [2] was 40.37 G/DL, the “MEAN CORPUSCULAR VOLUME” value [2] was 60.93 fL and the MONOCYTE [2] was 1%. The NEUTROPHIL [2] was 12%, the “NUCLEATED RED BLOOD CELLS” value [2] was 0 /100WBC and the “PLATELET COUNT” value [2] was 1238.33 x10E3/uL. For the same molecule, the “ALANINE AMINOTRANSFERASE” value [2] was 54.33 u/L, the ALBUMIN [2] was 4 G/DL and the “ALKALINE PHOSPHATASE” value [2] was 304.33 u/L. For the same molecule, the “ASPARTATE AMINOTRANSFERASE” value [2] was 87 u/L, the “BLOOD UREA NITROGEN” value [2] was 14 mg/dL and the “CARBON DIOXIDE” value [2] was 23.67 mmol/L. The CHLORIDE [2] was 102.33 MEQ/L, the CHOLESTEROL [2] was 63.33 mg/dL and the “CREATINE PHOSPHOKINASE” value [2] was 350.33 u/L. For the same molecule, the CREATININE [2] was 0.18 mg/dL, the GLUCOSE [2] was 197.67 mg/dL and the “LACTATE DEHYDROGENASE” value [2] was 237.33 u/L. It also gave an LIPASE [2] of 9 u/L, a PHOSPHORUS [2] of 10.53 mg/dL and a POTASSIUM [2] of 5.18 MEQ/L. For the same molecule, the SODIUM [2] was 142.5 MEQ/L, the “TOTAL BILIRUBIN” value [2] was 0.17 mg/dL and the “TOTAL PROTEIN” value [2] was 5.7 G/DL. For the same molecule, the “URIC ACID” value [2] was 1.27 mg/dL, the “ABSOLUTE BASOPHIL” value [3] was 0 CELLS/uL and the “ABSOLUTE EOSINOPHIL” value [3] was 28.67 CELLS/uL. For the same molecule, the “ABSOLUTE LYMPHOCYTE” value [3] was 12669 CELLS/uL, the “ABSOLUTE MONOCYTE” value [3] was 277.67 CELLS/uL and the “ABSOLUTE SEGMENTED NEUTROPHIL” value [3] was 1191.33 CELLS/uL. The BASOPHIL [3] was 0%, the EOSINOPHIL [3] was 0.33% and the “ERYTHROCYTE COUNT” value [3] was 5.82 x10E6/uL. The HEMATOCRIT [3] was 35.73%, the HEMOGLOBIN [3] was 14.33 G/DL and the “LEUKOCYTE COUNT” value [3] was 14.17 x10E3/uL. For the same molecule, the LYMPHOCYTE [3] was 89.67%, the “MEAN CORPUSCULAR HEMOGLOBIN” value [3] was 24.6 pg and the “MEAN CORPUSCULAR HEMOGLOBIN CONCENTRATION” value [3] was 40.17 G/DL. The “MEAN CORPUSCULAR VOLUME” value [3] was 61.37 fL, the MONOCYTE [3] was 2% and the NEUTROPHIL [3] was 8%. For the same molecule, the “NUCLEATED RED BLOOD CELLS” value [3] was 0 /100WBC, the “PLATELET COUNT” value [3] was 1144.33 x10E3/uL and the “ALANINE AMINOTRANSFERASE” value [3] was 48.33 u/L. The ALBUMIN [3] was 4.23 G/DL, the “ALKALINE PHOSPHATASE” value [3] was 308.67 u/L and the “ASPARTATE AMINOTRANSFERASE” value [3] was 76.67 u/L. For the same molecule, the “BLOOD UREA NITROGEN” value [3] was 16.67 mg/dL, the “CARBON DIOXIDE” value [3] was 25.67 mmol/L and the CHLORIDE [3] was 108.67 MEQ/L. For the same molecule, the CHOLESTEROL [3] was 58.33 mg/dL, the “CREATINE PHOSPHOKINASE” value [3] was 244.67 u/L and the CREATININE [3] was 0.23 mg/dL. The GLUCOSE [3] was 155.67 mg/dL, the “LACTATE DEHYDROGENASE” value [3] was 228.67 u/L and the LIPASE [3] was 10 u/L. The PHOSPHORUS [3] was 9.27 mg/dL, the POTASSIUM [3] was 6.1 MEQ/L and the SODIUM [3] was 150.27 MEQ/L. The “TOTAL BILIRUBIN” value [3] was 0.2 mg/dL, the “TOTAL PROTEIN” value [3] was 6.03 G/DL and the “URIC ACID” value [3] was 1.53 mg/dL.
